Test results reported in publication PMC4234429 (Journal of Medicinal Chemistry, 2014).
Bridge positions count the residues as written; N and C are the ends. Square brackets hold non-standard residues; d marks the D form. Peptide text beside a SMILES is read from it. Nle = CCCC[C@H](N)C(=O)O; βAla = NCCC(=O)O

Experiment: RP-HPLC capacity factor
Assay type: physicochemical
Details: Grace Vydac C-18, 20 min gradient of 18–28% acetonitrile in 20 mM HCl, 1 mL/min

| SMILES | capacity factor (k′) |
| --- | --- |
| CC(C)[C@H](NC(=O)[C@@H]1CCCN1C(=O)[C@H](CCCNC(=N)N)NC(=O)[C@H](CS)NC(=O)[C@H](Cc1c[nH]c2ccccc12)NC(=O)[C@H](CCCNC(=N)N)NC(=O)[C@@H](Cc1ccccc1)NC(=O)[C@H](Cc1c[nH]cn1)NC(=O)[C@H](CCC(=O)O)NC(=O)[C@H](CS)NC(=O)[C@H](CS)NC(=O)CCNC(=O)[C@@H]1CC(=O)N[C@@H](CCCNC(=N)N)C(=O)N[C@@H](CO)C(=O)N[C@@H](CC(=O)O)C(=O)N[C@H](Cc2ccc(O)cc2)C(=O)N1)C(N)=O [peptide 1, RSD-β-Ala-(Arg^11)CCMSH] (RSD[dY]D[βAla]CCEH[dF]RWCRPV-NH2; lactam N-5) | 1.35 |
| CC(C)[C@H](NC(=O)[C@@H]1CCCN1C(=O)[C@H](CCCNC(=N)N)NC(=O)[C@H](CS)NC(=O)[C@H](Cc1c[nH]c2ccccc12)NC(=O)[C@H](CCCNC(=N)N)NC(=O)[C@@H](Cc1ccccc1)NC(=O)[C@H](Cc1c[nH]cn1)NC(=O)[C@H](CCC(=O)O)NC(=O)[C@H](CS)NC(=O)[C@H](CS)NC(=O)CCNC(=O)[C@@H]1CC(=O)N[C@@H](CCCNC(=N)N)C(=O)N[C@@H]([C@@H](C)O)C(=O)N[C@@H](CC(=O)O)C(=O)N[C@H](Cc2ccc(O)cc2)C(=O)N1)C(N)=O [peptide 2, RTD-β-Ala-(Arg^11)CCMSH] (RTD[dY]D[βAla]CCEH[dF]RWCRPV-NH2; lactam N-5) | 0.98 |
| CC(C)[C@H](NC(=O)[C@@H]1CCCN1C(=O)[C@H](CCCNC(=N)N)NC(=O)[C@H](CS)NC(=O)[C@H](Cc1c[nH]c2ccccc12)NC(=O)[C@H](CCCNC(=N)N)NC(=O)[C@@H](Cc1ccccc1)NC(=O)[C@H](Cc1c[nH]cn1)NC(=O)[C@H](CCC(=O)O)NC(=O)[C@H](CS)NC(=O)[C@H](CS)NC(=O)CCNC(=O)[C@@H]1CC(=O)N[C@@H](CCCNC(=N)N)C(=O)N[C@@H](C(C)C)C(=O)N[C@@H](CC(=O)O)C(=O)N[C@H](Cc2ccc(O)cc2)C(=O)N1)C(N)=O [peptide 3, RVD-β-Ala-(Arg^11)CCMSH] (RVD[dY]D[βAla]CCEH[dF]RWCRPV-NH2; lactam N-5) | 1.94 |
| CC(C)[C@H](NC(=O)[C@@H]1CCCN1C(=O)[C@H](CCCNC(=N)N)NC(=O)[C@H](CS)NC(=O)[C@H](Cc1c[nH]c2ccccc12)NC(=O)[C@H](CCCNC(=N)N)NC(=O)[C@@H](Cc1ccccc1)NC(=O)[C@H](Cc1c[nH]cn1)NC(=O)[C@H](CCC(=O)O)NC(=O)[C@H](CS)NC(=O)[C@H](CS)NC(=O)CCNC(=O)[C@@H]1CC(=O)N[C@@H](CCCNC(=N)N)C(=O)N[C@@H](C)C(=O)N[C@@H](CC(=O)O)C(=O)N[C@H](Cc2ccc(O)cc2)C(=O)N1)C(N)=O [peptide 4, RAD-β-Ala-(Arg^11)CCMSH] (RAD[dY]D[βAla]CCEH[dF]RWCRPV-NH2; lactam N-5) | 3.32 |
| CCCC[C@@H]1NC(=O)C[C@@H](C(=O)NCCC(=O)N[C@@H](CS)C(=O)N[C@@H](CS)C(=O)N[C@@H](CCC(=O)O)C(=O)N[C@@H](Cc2c[nH]cn2)C(=O)N[C@H](Cc2ccccc2)C(=O)N[C@@H](CCCNC(=N)N)C(=O)N[C@@H](Cc2c[nH]c3ccccc23)C(=O)N[C@@H](CS)C(=O)N[C@@H](CCCNC(=N)N)C(=O)N2CCC[C@H]2C(=O)N[C@H](C(N)=O)C(C)C)NC(=O)[C@@H](Cc2ccc(O)cc2)NC(=O)[C@H](CC(=O)O)NC(=O)[C@H](C)NC1=O [peptide 5, NAD-β-Ala-(Arg^11)CCMSH] ([Nle]AD[dY]D[βAla]CCEH[dF]RWCRPV-NH2; lactam N-5) | 3.17 |
| CC(C)[C@H](NC(=O)[C@@H]1CCCN1C(=O)[C@H](CCCNC(=N)N)NC(=O)[C@H](CS)NC(=O)[C@H](Cc1c[nH]c2ccccc12)NC(=O)[C@H](CCCNC(=N)N)NC(=O)[C@@H](Cc1ccccc1)NC(=O)[C@H](Cc1c[nH]cn1)NC(=O)[C@H](CCC(=O)O)NC(=O)[C@H](CS)NC(=O)[C@H](CS)NC(=O)CCNC(=O)[C@@H]1CC(=O)N[C@@H](CCC(=O)O)C(=O)N[C@@H](C)C(=O)N[C@@H](CC(=O)O)C(=O)N[C@H](Cc2ccc(O)cc2)C(=O)N1)C(N)=O [peptide 6, EAD-β-Ala-(Arg^11)CCMSH] (EAD[dY]D[βAla]CCEH[dF]RWCRPV-NH2; lactam N-5) | 2.28 |
